Assay results as given in ChEMBL document CHEMBL3785008, “Piperine in food: interference in the pharmacokinetics of phenytoin” (Eur J Drug Metab Pharmacokinet, 2001).

Key:
[1] = AUC (0 to 48 hrs) in healthy adult human subjects at 300 mg, po by HPLC method; format: ADME, organism-based; parameters: time < 48 hr, dose 300 mg, route oral; conditions: in vivo
Homo sapiens [2] = test: Drug absorption in healthy adult human subjects at 300 mg, po dosed 30 minutes after ingestion of soup (melahu rasam) with black pepper by HPLC method; format: ADME, organism-based; conditions: in vivo, 0.5 h
[3] = AUC (0 to infinity) in healthy adult human subjects at 300 mg, po dosed 30 minutes after ingestion of soup (melahu rasam) with black pepper by HPLC method; format: ADME, organism-based; parameters: dose 300 mg, time infinity, route oral; conditions: in vivo
[4] = AUC (0 to 10 hrs) in normal Swiss albino mouse at 10 mg, po by HPLC method; format: ADME, organism-based; parameters: time < 10 hr, dose 10 mg, route oral; conditions: in vivo
[5] = Tmax in healthy adult human subjects at 300 mg, po dosed 30 minutes after ingestion of soup (melahu rasam) with black pepper by HPLC method; format: ADME, organism-based; conditions: in vivo
[6] = AUC (0 to infinity) in healthy adult human subjects at 300 mg, po by HPLC method; format: ADME, organism-based; parameters: dose 300 mg, route oral, time infinity; conditions: in vivo
[7] = Tmax in healthy adult human subjects at 300 mg, po by HPLC method; format: ADME, organism-based; conditions: in vivo
Mus musculus = test: Ratio of drug level in 0.6 mg, po piperine pre-treated Swiss albino mouse at 10 mg, po to drug level in normal Swiss albino mouse at 10 mg, po; format: ADME, organism-based; conditions: in vivo
[8] = Mean residence time in healthy adult human subjects at 300 mg, po dosed 30 minutes after ingestion of soup (melahu rasam) with black pepper by HPLC method; format: ADME, organism-based; conditions: in vivo
[9] = Mean residence time in healthy adult human subjects at 300 mg, po by HPLC method; format: ADME, organism-based; conditions: in vivo
[10] = Cmax in healthy adult human subjects at 300 mg, po by HPLC method; format: ADME, organism-based; parameters: dose 300 mg, route oral; conditions: in vivo
Homo sapiens [11] = test: Volume of distribution in healthy adult human subjects at 300 mg, po by HPLC method; format: ADME, organism-based; conditions: in vivo
Homo sapiens [12] = test: Drug lag time in healthy adult human subjects at 300 mg, po by HPLC method; format: ADME, organism-based; conditions: in vivo
Homo sapiens [13] = test: Volume of distribution in healthy adult human subjects at 300 mg, po dosed 30 minutes after ingestion of soup (melahu rasam) with black pepper by HPLC method; format: ADME, organism-based; conditions: in vivo, 0.5 h
[14] = Clearance in healthy adult human subjects at 300 mg, po by HPLC method; format: ADME, organism-based; conditions: in vivo
[15] = Elimination half life in healthy adult human subjects at 300 mg, po by HPLC method; format: ADME, organism-based; conditions: in vivo, read-out: beta t1/2 (converted)
Homo sapiens [16] = test: Drug lag time in healthy adult human subjects at 300 mg, po dosed 30 minutes after ingestion of soup (melahu rasam) with black pepper by HPLC method; format: ADME, organism-based; conditions: in vivo, 0.5 h
[17] = AUC (0 to 10 hrs) in 0.6 mg, po piperine pre-treated Swiss albino mouse at 10 mg, po by HPLC method; format: ADME, organism-based; parameters: dose 0.6 mg, time < 10 hr, route oral; conditions: in vivo
[18] = AUC (0 to 48 hrs) in healthy adult human subjects at 300 mg, po dosed 30 minutes after ingestion of soup (melahu rasam) with black pepper by HPLC method; format: ADME, organism-based; parameters: time < 48 hr, dose 300 mg, route oral; conditions: in vivo
[19] = Clearance in healthy adult human subjects at 300 mg, po dosed 30 minutes after ingestion of soup (melahu rasam) with black pepper by HPLC method; format: ADME, organism-based; conditions: in vivo
Homo sapiens [20] = test: Drug absorption in healthy adult human subjects at 300 mg, po by HPLC method; format: ADME, organism-based; conditions: in vivo
[21] = Cmax in healthy adult human subjects at 300 mg, po dosed 30 minutes after ingestion of soup (melahu rasam) with black pepper by HPLC method; format: ADME, organism-based; parameters: dose 300 mg, route oral; conditions: in vivo
[22] = Elimination half life in healthy adult human subjects at 300 mg, po dosed 30 minutes after ingestion of soup (melahu rasam) with black pepper by HPLC method; format: ADME, organism-based; conditions: in vivo, read-out: beta t1/2 (converted)
Homo sapiens [23] = species on record: Homo sapiens; test: Drug absorption rate constant in healthy adult human subjects after consumption of 44 mg equivalent of piperine in form of pepper in soup (melahu rasam) by HPLC method; format: ADME, organism-based; conditions: in vivo, po
[24] = Drug elimination rate constant in healthy adult human subjects after consumption of 44 mg equivalent of piperine in form of pepper in soup (melahu rasam) by HPLC method; format: ADME, organism-based; conditions: in vivo, po
[25] = AUC (0 to infinity) in healthy adult human subjects after consumption of 44 mg equivalent of piperine in form of pepper in soup (melahu rasam) by HPLC method; format: ADME, organism-based; parameters: dose 44 mg, time infinity; conditions: in vivo, po
[26] = Tmax in healthy adult human subjects after consumption of 44 mg equivalent of piperine in form of pepper in soup (melahu rasam) by HPLC method; format: ADME, organism-based; conditions: in vivo, po
[27] = Cmax in Swiss albino mouse serum at 0.3 mg, po by HPLC method; format: ADME, organism-based; parameters: dose 0.3 mg, route oral
[28] = Tmax in Swiss albino mouse serum at 0.3 mg, po by HPLC method; format: ADME, organism-based
[29] = Cmax in healthy adult human subjects after consumption of 44 mg equivalent of piperine in form of pepper in soup (melahu rasam) by HPLC method; format: ADME, organism-based; parameters: dose 44 mg; conditions: in vivo, po
[30] = AUC (0 to 12.5 hrs) in healthy adult human subjects after consumption of 44 mg equivalent of piperine in form of pepper in soup (melahu rasam) by HPLC method; format: ADME, organism-based; parameters: dose 44 mg, time < 12.5 hr; conditions: in vivo, po
[31] = Drug excretion in human urine assessed as hydroxyphenylphenylhydantoin and glucuronide conjugate level; format: ADME, tissue-based

With `O=C1N=C([O-])NC1(c1ccccc1)c1ccccc1.[Na+]` [PHENYTOIN SODIUM] the AUC(0-t) at 48 h [1] was 102 µg·h/mL, the ka (Homo sapiens [2]) was 1.177 h⁻¹ and the AUC(0-inf) [3] was 332 µg·h/mL. The AUC(0-t) at 10 h [4] was 716 µg·h/mL, the Tmax [5] was 3.38 h and the AUC(0-inf) [6] was 143 µg·h/mL. The Tmax [7] was 5.32 h, the Ratio (Mus musculus) was 1.8 and the MRT [8] was 70.9 h. It also gave an MRT [9] of 34.2 h, a Cmax [10] of 3820 ng/mL and a Vd (Homo sapiens [11]) of 65.02 L. For the same compound, the Tlag (Homo sapiens [12]) was 0.655 h, the Vd (Homo sapiens [13]) was 64.58 L and the CL/F [14] was 41.3 mL/min. The half-life [15] was 1350 min, the Tlag (Homo sapiens [16]) was 0.168 h and the AUC(0-t) at 10 h [17] was 891 µg·h/mL. The AUC(0-t) at 48 h [18] was 153 µg·h/mL, the CL/F [19] was 15.9 mL/min and the ka (Homo sapiens [20]) was 0.666 h⁻¹. For the same compound, the Cmax [21] was 4310 ng/mL and the half-life [22] was 2980 min.
In the case of `O=C(/C=C/C=C/c1ccc2c(c1)OCO2)N1CCCCC1` [PIPERINE], the ka (Homo sapiens [23]) is reported as 1.41 h⁻¹, the k el [24] is reported as 2.22e-05 s⁻¹ and the AUC(0-inf) [25] is reported as 5300 ng·h/mL. For the same compound, the Tmax [26] was 2.5 h, the Cmax [27] was 5470 ng/mL and the Tmax [28] was 6 h. The Cmax [29] was 400 ng/mL and the AUC(0-t) at 12.5 h [30] was 3370 ng·h/mL.
With `O=C1NC(=O)C(c2ccccc2)(c2ccccc2)N1` [PHENYTOIN] the Drug excretion [31] was 60%.
